According to patent US12655130B2 (ASSEMBLY BIOSCIENCES, INC., priority 2020, dated 2026):

System: HBV viral load (viral production from HepAD38 cells)
Experiment: Activity of test compounds on viral production from HepAD38 cells (viral load by qPCR of HBV core sequence)
Assay type: cell-based
Conditions: Hepatitis B virus, HePAD38, 120 h, viral load lowering, 5 days, qPCR of supernatant, read-out: VL HepAD38 EC50 range
Procedure, shortened: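 HepAD38 cells seeded at 50,000/well in tetracycline-free medium with 2% FBS, treated 5 days at 37 °C with compounds from 10 μM top concentration. Supernatant HBV DNA quantified by TaqMan qPCR of core sequence against HBV DNA standards, relative to DMSO wells; viability by CellTiter-Glo; EC50/CC50 by four-parameter logistic fit.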

SMILES	EC50 [nM]
[2H]C([2H])([2H])n1nccc1C1(O)CC2CC(c3ncn(C)c3C(=O)Nc3ccc(F)c(Cl)c3)CC2C1 (stereo not drawn) [Example 137, N-(3-chloro-4-fluorophenyl)-4-(5-hydroxy-5-(1-(methyl-d3)-1H-pyrazol-5-yl)octahydropentalen-2-yl)-1-methyl-1H-imidazole-5-carboxamide]	< 10
Cc1nc(C2CC3CC(O)(c4c(Cl)cnn4C)CC3C2)c(C(=O)Nc2ccc(F)c(Cl)c2)n1C (stereo not drawn) [Example 138, 4-(5-(4-Chloro-1-methyl-1H-pyrazol-5-yl)-5-hydroxyoctahydropentalen-2-yl)-N-(3-chloro-4-fluorophenyl)-1,2-dimethyl-1H-imidazole-5-carboxamide]	< 10
Cn1cc(Cl)c(C2(O)CC3CC(c4ncn(C)c4C(=O)Nc4ccc(F)c(Cl)c4)CC3C2)n1 (stereo not drawn) [Example 139, 4-(5-(4-Chloro-1-methyl-1H-pyrazol-3-yl)-5-hydroxyoctahydropentalen-2-yl)-N-(3-chloro-4-fluorophenyl)-1-methyl-1H-imidazole-5-carboxamide]	< 10
Cc1nc(C2CC3CC(O)(c4ccnn4C(C)C)CC3C2)c(C(=O)Nc2ccc(F)c(Cl)c2)n1C (stereo not drawn) [Example 140, N-(3-Chloro-4-fluorophenyl)-4-(5-hydroxy-5-(1-isopropyl-1H-pyrazol-5-yl)octahydropentalen-2-yl)-1,2-dimethyl-1H-imidazole-5-carboxamide]	< 10
Cn1cnc(C2CC3CC(O)(c4cnn(C)c4C(F)(F)F)CC3C2)c1C(=O)Nc1ccc(F)c(Cl)c1 (stereo not drawn) [Example 141, N-(3-Chloro-4-fluorophenyl)-4-(5-hydroxy-5-(1-methyl-5-(trifluoromethyl)-1H-pyrazol-4-yl)octahydropentalen-2-yl)-1-methyl-1H-imidazole-5-carboxamide]	< 10
Cn1cnc(C2CC3CC(O)(c4nn(C)c(C(F)(F)F)c4Br)CC3C2)c1C(=O)Nc1ccc(F)c(Cl)c1 (stereo not drawn) [Example 142, 4-(5-(4-Bromo-1-methyl-5-(trifluoromethyl)-1H-pyrazol-3-yl)-5-hydroxyoctahydropentalen-2-yl)-N-(3-chloro-4-fluorophenyl)-1-methyl-1H-imidazole-5-carboxamide]	< 10
Cn1cnc(C2CC3CC(O)(c4[nH]ncc4Cl)CC3C2)c1C(=O)Nc1ccc(F)c(Cl)c1 (stereo not drawn) [Example 143, 4-(5-(4-Chloro-1H-pyrazol-5-yl)-5-hydroxyoctahydropentalen-2-yl)-N-(3-chloro-4-fluorophenyl)-1-methyl-1H-imidazole-5-carboxamide]	< 10
Cc1cc(C2(O)CC3CC(c4ncn(C)c4C(=O)Nc4ccc(F)c(Cl)c4)CC3C2)[nH]n1 (stereo not drawn) [Example 144, N-(3-Chloro-4-fluorophenyl)-4-(5-hydroxy-5-(3-methyl-1H-pyrazol-5-yl)octahydropentalen-2-yl)-1-methyl-1H-imidazole-5-carboxamide]	< 10
Cn1cnc(C2CC3CC(O)(c4c(C(F)F)cnn4C)CC3C2)c1C(=O)Nc1ccc(F)c(Cl)c1 (stereo not drawn) [Example 145, N-(3-Chloro-4-fluorophenyl)-4-(5-(4-(difluoromethyl)-1-methyl-1H-pyrazol-5-yl)-5-hydroxyoctahydropentalen-2-yl)-1-methyl-1H-imidazole-5-carboxamide]	< 10
Cn1cnc(C2CC3CC(O)(c4cc([N+](=O)[O-])n[nH]4)CC3C2)c1C(=O)Nc1ccc(F)c(Cl)c1 (stereo not drawn) [Example 146, N-(3-Chloro-4-fluorophenyl)-4-(5-hydroxy-5-(3-nitro-1H-pyrazol-5-yl)octahydropentalen-2-yl)-1-methyl-1H-imidazole-5-carboxamide]	< 10
Cn1cnc(C2CC3CC(O)(c4cnn(C)c4C(F)F)CC3C2)c1C(=O)Nc1ccc(F)c(Cl)c1 (stereo not drawn) [Example 147, N-(3-Chloro-4-fluorophenyl)-4-(5-(5-(difluoromethyl)-1-methyl-1H-pyrazol-4-yl)-5-hydroxyoctahydropentalen-2-yl)-1-methyl-1H-imidazole-5-carboxamide]	< 10
Cn1cnc(C2CC3CC(O)(c4[nH]ncc4F)CC3C2)c1C(=O)Nc1ccc(F)c(Cl)c1 (stereo not drawn) [Example 148, N-(3-Chloro-4-fluorophenyl)-4-(5-(4-fluoro-1H-pyrazol-5-yl)-5-hydroxyoctahydropentalen-2-yl)-1-methyl-1H-imidazole-5-carboxamide]	< 10
Cn1cnc(C2CC3CC(O)(c4[nH]ncc4C(F)(F)F)CC3C2)c1C(=O)Nc1ccc(F)c(Cl)c1 (stereo not drawn) [Example 149, N-(3-Chloro-4-fluorophenyl)-4-(5-hydroxy-5-(4-(trifluoromethyl)-1H-pyrazol-5-yl)octahydropentalen-2-yl)-1-methyl-1H-imidazole-5-carboxamide]	< 10
Cn1cnc(C2CC3CC(O)(c4c[nH]nc4C(F)(F)F)CC3C2)c1C(=O)Nc1ccc(F)c(Cl)c1 (stereo not drawn) [Example 150, N-(3-Chloro-4-fluorophenyl)-4-(5-hydroxy-5-(3-(trifluoromethyl)-1H-pyrazol-4-yl)octahydropentalen-2-yl)-1-methyl-1H-imidazole-5-carboxamide]	< 10
CCn1cc(C2(O)CC3CC(c4ncn(C)c4C(=O)Nc4ccc(F)c(Cl)c4)CC3C2)c(C(F)(F)F)n1 (stereo not drawn) [Example 151, N-(3-Chloro-4-fluorophenyl)-4-(5-(1-ethyl-3-(trifluoromethyl)-1H-pyrazol-4-yl)-5-hydroxyoctahydropentalen-2-yl)-1-methyl-1H-imidazole-5-carboxamide]	< 10
CCn1nc(C(F)F)cc1C1(O)CC2CC(c3ncn(C)c3C(=O)Nc3ccc(F)c(Cl)c3)CC2C1 (stereo not drawn) [Example 152, N-(3-Chloro-4-fluorophenyl)-4-(5-(3-(difluoromethyl)-1-ethyl-1H-pyrazol-5-yl)-5-hydroxyoctahydropentalen-2-yl)-1-methyl-1H-imidazole-5-carboxamide]	< 10
CC(C)n1nc(C(F)F)cc1C1(O)CC2CC(c3ncn(C)c3C(=O)Nc3ccc(F)c(Cl)c3)CC2C1 (stereo not drawn) [Example 153, N-(3-Chloro-4-fluorophenyl)-4-(5-(3-(difluoromethyl)-1-isopropyl-1H-pyrazol-5-yl)-5-hydroxyoctahydropentalen-2-yl)-1-methyl-1H-imidazole-5-carboxamide]	< 10
CC(C)n1cc(Cl)c(C2(O)CC3CC(c4ncn(C)c4C(=O)Nc4ccc(F)c(Cl)c4)CC3C2)n1 (stereo not drawn) [Example 154, 4-(5-(4-Chloro-1-isopropyl-1H-pyrazol-3-yl)-5-hydroxyoctahydropentalen-2-yl)-N-(3-chloro-4-fluorophenyl)-1-methyl-1H-imidazole-5-carboxamide]	< 10
Cn1cnc(C2CC3CC(O)(Cc4cc(C(F)(F)F)nn4C)CC3C2)c1C(=O)Nc1ccc(F)c(Cl)c1 (stereo not drawn) [Example 155, N-(3-Chloro-4-fluorophenyl)-4-(5-hydroxy-5-((1-methyl-3-(trifluoromethyl)-1H-pyrazol-5-yl)methyl)octahydropentalen-2-yl)-1-methyl-1H-imidazole-5-carboxamide]	< 10
Cn1cc(C(F)(F)F)c(C2(O)CC3CC(c4ncn(C)c4C(=O)Nc4ccc(F)c(Cl)c4)CC3C2)n1 (stereo not drawn) [Example 156, N-(3-Chloro-4-fluorophenyl)-4-(5-hydroxy-5-(1-methyl-4-(trifluoromethyl)-1H-pyrazol-3-yl)octahydropentalen-2-yl)-1-methyl-1H-imidazole-5-carboxamide]	< 10
CC(C)n1cc(C2(O)CC3CC(c4ncn(C)c4C(=O)Nc4ccc(F)c(Cl)c4)CC3C2)c(C(F)(F)F)n1 (stereo not drawn) [Example 157, N-(3-Chloro-4-fluorophenyl)-4-(5-hydroxy-5-(1-isopropyl-3-(trifluoromethyl)-1H-pyrazol-4-yl)octahydropentalen-2-yl)-1-methyl-1H-imidazole-5-carboxamide]	< 10
CC(C)n1ncc(C2(O)CC3CC(c4ncn(C)c4C(=O)Nc4ccc(F)c(Cl)c4)CC3C2)c1C(F)(F)F (stereo not drawn) [Example 158, N-(3-Chloro-4-fluorophenyl)-4-(5-hydroxy-5-(1-isopropyl-5-(trifluoromethyl)-1H-pyrazol-4-yl)octahydropentalen-2-yl)-1-methyl-1H-imidazole-5-carboxamide]	< 10
CCn1cc(C(F)(F)F)c(C2(O)CC3CC(c4ncn(C)c4C(=O)Nc4ccc(F)c(Cl)c4)CC3C2)n1 (stereo not drawn) [Example 159, N-(3-Chloro-4-fluorophenyl)-4-(5-(1-ethyl-4-(trifluoromethyl)-1H-pyrazol-3-yl)-5-hydroxyoctahydropentalen-2-yl)-1-methyl-1H-imidazole-5-carboxamide]	< 10
CC(C)n1cc(C(F)(F)F)c(C2(O)CC3CC(c4ncn(C)c4C(=O)Nc4ccc(F)c(Cl)c4)CC3C2)n1 (stereo not drawn) [Example 160, N-(3-Chloro-4-fluorophenyl)-4-(5-hydroxy-5-(1-isopropyl-4-(trifluoromethyl)-1H-pyrazol-3-yl)octahydropentalen-2-yl)-1-methyl-1H-imidazole-5-carboxamide]	< 10
CCC(C)n1nc(N)cc1C1(O)CC2CC(c3ncn(C)c3C(=O)Nc3ccc(F)c(Cl)c3)CC2C1 (stereo not drawn) [Example 161, 4-(5-(3-Amino-1-(sec-butyl)-1H-pyrazol-5-yl)-5-hydroxyoctahydropentalen-2-yl)-N-(3-chloro-4-fluorophenyl)-1-methyl-1H-imidazole-5-carboxamide]	< 10
CCn1cc(C2(O)CC3CC(c4ncn(C)c4C(=O)Nc4ccc(F)c(Cl)c4)CC3C2)c(C(F)F)n1 (stereo not drawn) [Example 162, N-(3-Chloro-4-fluorophenyl)-4-(5-(3-(difluoromethyl)-1-ethyl-1H-pyrazol-4-yl)-5-hydroxyoctahydropentalen-2-yl)-1-methyl-1H-imidazole-5-carboxamide]	< 10
CC(=O)Nc1cc(C2(O)CC3CC(c4ncn(C)c4C(=O)Nc4ccc(F)c(Cl)c4)CC3C2)n(C)n1 (stereo not drawn) [Example 163, 4-(5-(3-Acetamido-1-methyl-1H-pyrazol-5-yl)-5-hydroxyoctahydropentalen-2-yl)-N-(3-chloro-4-fluorophenyl)-1-methyl-1H-imidazole-5-carboxamide]	< 10
